Assay results as given in patent US6004928A, “Method of treating hyperlipidemia” (Biomeasure, Incorporated, priority 1998, dated 1999).
Positions of bridges follow the written chain, without caps; N, C: chain ends. Non-standard residues stand in square brackets, D forms with d. Residues, ends and D or L forms follow the SMILES beside them.

Columns and labels:
normal humans = details: cited from earlier work
acromegalics = details: cited from earlier work
alloxan diabetic dogs = details: cited from earlier work
[1] = system: fatty (fa/fa) Zucker rats; assay: Reduction of glycerol and triglycerides, chronic treatment in fatty Zucker rats; assay type: in vivo, rat
Excerpt: The obese (fa/fa) Zucker and its derivative in the Zucker diabetic fatty (ZDF/Drt-fa) are excellent models of diabetes-induced dyspilidemia (Shafrir, E., Diabetes/Metabolism Rev. 8:179-208 (1992); Peterson, R. G., et al., ILAR News 32:16-19 (1990)). The animals develop progressive hypertriglyceridemia and hypercholesterolemia.
Eleven male fatty Zucker rats weighing about 450 grams were randomly divided into 2 groups and their initial body weights recorded. The animals were housed in pairs in a normal 12 hour light/dark cycle at 20±2° C. and fed a standard laboratory rat diet (Beekay rat and mouse diet, Bantin & Kingman, Hull, Humberside, U.K.) overnight ad libitum.
For the group assigned to receive drug treatment, the rats received BIM-23268C at 3 mg/kg, by subcutaneous injection twice a day at 10:00 a.m. and 5:00 p.m. The other group was treated with a subcutaneous injection of 0.1 ml/100 g of saline twice a day at 10:00 a.m. and 5:00 p.m. The animals were subjected to the BIM-23268 or saline treatment for a total of six days.
On the last day of treatment (day 6), food was removed at 5:00 p.m. and the rats fasted overnight. At 9:00 a.m. the next day, the animals were subjected to a glucose challenge, given as a 0.8 gram/kg of glucose orally. Periodic 400 ul of blood samples were taken from the tail vein (Peterson, R. G., ILAR News 32:16-19 (1990)) at 60 min. and 30 min. before, and at 30, 60, 90, and 120 min. after the administration of the glucose challenge (08. gram/kg orally). Aprotinin (Traysylol, Bayer UK, Hayward's Heath, W. Sussex, U.K.) and heparin (Sigma Chemical Co., Poole, Dorset, U.K.) were added to the blood samples to a final concentration of 400 KIU/ml and 100 units/ml, respectively. Plasma fractions were prepared from these samples by centrifugation at 400×G in a microfuge, for the estimation of triglycerides and glycerol. Samples were then stored at -80° C. until assayed.
Plasma glycerol and triglycerides were determined using the Sigma Enzymatic (Tinder) calorimetric assay kit (Cat #337-B, Sigma Chemical Co., Poole, Dorset, U.K.) and measuring absorbance at 540 nm in a spectrophotometer.

hSSTR-3 = target: T1, hSSTR-3 (Homo sapiens, UniProt P32745); assay: Somatostatin receptor binding assay, [125I-Tyr11]somatostatin-14, transfected CHO-K1 membranes; details: 0.05 nM [125I-Tyr11]somatostatin-14, 30 min at 30° C.
T1 construct: expressed in transfected cells; crude membranes
Description: (§1) CHO-K1 (ovary, Chinese hamster) cells were obtained from ATCC (ATCC No. CCL 61). The cells were grown and maintained in Ham's F12 media (Gibco BRL, Grand Island, N.Y.) supplemented with 10% fetal bovine serum under standard tissue culture conditions. For transfection, the cells were seeded at a density 1×10^6 /60-cm plate (Baxter Scientific Products, McGraw Park, Ill.). […] CHO-K1 clonal cell lines that have stably inherited the transfected DNA were selected for growth in Ham's F12 media containing 10% fetal bovine serum and 0.5 mg/ml of G418 (Sigma). The cells were ring-cloned and expanded in the same media for analysis.
(§2) Transfected cell lines expressing the human SSTR receptors were clonally expanded in culture and used in the following SSTR binding protocol.
(§3) Crude membranes were prepared by homogenization of the transfected cells in 20 ml of ice-cold 50 mM Tris-HCl with a POLYTRON homogenizer (setting 6, 15 sec). Buffer was added to obtain a final volume of 40 ml, and the homogenate was centrifuged in a Sorval SS-34 rotor at 39,000 g for 10 min at 0-4° C. The resulting supernatant was decanted and discarded. The pellet was rehomogenized in ice-cold buffer, diluted, and centrifuged as before. The final pellet was resuspended in the 10 mM Tris HCl and held on ice for the receptor binding assay.
The final assay volume was 0.3 ml. […]

hSSTR-5 = target: T2, hSSTR-5 (Homo sapiens, UniProt P35346); assay: as above; details: 0.05 nM [125I-Tyr11]somatostatin-14, 30 min at 30° C.
T2 construct: expressed in transfected cells; crude membranes
Description: as §1, §2, §3
The final assay volume was 0.3 ml. […]

hSSTR-2 = target: T3, hSSTR-2 (Homo sapiens, UniProt P30874); assay: as above; details: 0.05 nM [125I-Tyr11]somatostatin-14, 30 min at 30° C.
T3 construct: expressed in transfected cells; crude membranes
Description: as §1, §2, §3
The final assay volume was 0.3 ml. […]

hSSTR-4 = target: T4, hSSTR-4 (Homo sapiens, UniProt P31391); assay: as above; details: 0.05 nM [125I-Tyr11]somatostatin-14, 30 min at 30° C.
T4 construct: expressed in transfected cells; crude membranes
Description: as §1, §2, §3
The final assay volume was 0.3 ml. […]

[2] = 3 mg/kg s.c. twice a day, 6 days, after oral glucose challenge 0.8 gram/kg, vs saline group
[3] = 3 mg/kg s.c. twice a day, 6 days, samples 30 and 60 min before oral glucose challenge

T2 sequence (P35346 whole entry): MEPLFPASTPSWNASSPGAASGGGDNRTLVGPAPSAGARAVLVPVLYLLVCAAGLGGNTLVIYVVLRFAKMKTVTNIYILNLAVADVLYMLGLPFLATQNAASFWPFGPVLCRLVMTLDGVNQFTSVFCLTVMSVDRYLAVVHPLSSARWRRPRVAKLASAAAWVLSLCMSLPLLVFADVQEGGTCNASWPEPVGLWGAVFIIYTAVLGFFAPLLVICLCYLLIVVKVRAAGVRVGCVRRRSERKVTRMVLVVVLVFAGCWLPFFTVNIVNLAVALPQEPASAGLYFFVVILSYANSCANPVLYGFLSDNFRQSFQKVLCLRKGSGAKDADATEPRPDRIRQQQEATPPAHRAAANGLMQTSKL
T1 sequence (P32745 whole entry): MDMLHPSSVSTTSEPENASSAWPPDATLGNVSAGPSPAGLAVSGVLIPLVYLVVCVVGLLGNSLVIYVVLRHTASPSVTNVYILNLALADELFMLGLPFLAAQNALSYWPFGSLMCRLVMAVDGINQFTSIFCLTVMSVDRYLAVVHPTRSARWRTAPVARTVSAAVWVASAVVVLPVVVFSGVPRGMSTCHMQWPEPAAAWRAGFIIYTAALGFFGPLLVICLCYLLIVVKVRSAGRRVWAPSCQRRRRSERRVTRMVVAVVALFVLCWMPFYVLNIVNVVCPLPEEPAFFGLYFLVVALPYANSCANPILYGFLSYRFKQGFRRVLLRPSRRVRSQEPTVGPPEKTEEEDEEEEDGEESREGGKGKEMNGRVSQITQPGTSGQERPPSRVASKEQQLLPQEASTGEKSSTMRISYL
T3 sequence (P30874 whole entry): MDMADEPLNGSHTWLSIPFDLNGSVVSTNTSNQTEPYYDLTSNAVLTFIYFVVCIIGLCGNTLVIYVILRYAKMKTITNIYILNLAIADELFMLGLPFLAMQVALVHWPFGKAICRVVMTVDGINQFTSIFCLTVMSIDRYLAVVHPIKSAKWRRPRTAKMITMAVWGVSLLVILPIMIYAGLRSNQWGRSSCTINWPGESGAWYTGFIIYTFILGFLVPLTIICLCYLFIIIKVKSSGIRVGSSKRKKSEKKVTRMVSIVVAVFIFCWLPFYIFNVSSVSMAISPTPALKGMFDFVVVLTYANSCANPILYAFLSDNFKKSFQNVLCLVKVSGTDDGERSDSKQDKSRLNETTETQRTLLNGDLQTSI
T4 sequence (P31391 whole entry): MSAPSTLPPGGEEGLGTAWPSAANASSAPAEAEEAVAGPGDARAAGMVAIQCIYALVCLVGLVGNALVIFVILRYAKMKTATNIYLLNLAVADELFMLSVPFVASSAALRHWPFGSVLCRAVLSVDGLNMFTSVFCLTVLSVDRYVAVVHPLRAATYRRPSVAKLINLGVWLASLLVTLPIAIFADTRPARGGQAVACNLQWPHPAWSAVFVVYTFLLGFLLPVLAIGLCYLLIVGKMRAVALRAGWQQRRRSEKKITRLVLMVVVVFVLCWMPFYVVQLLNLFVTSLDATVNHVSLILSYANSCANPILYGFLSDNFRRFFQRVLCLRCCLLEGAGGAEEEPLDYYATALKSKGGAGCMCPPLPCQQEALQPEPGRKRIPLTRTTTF

In the case of `C[C@H](N)C(=O)NCC(=O)N[C@H]1CSSC[C@@H](C(=O)O)NC(=O)[C@H](CO)NC(=O)[C@H]([C@@H](C)O)NC(=O)[C@H](Cc2ccccc2)NC(=O)[C@H]([C@@H](C)O)NC(=O)[C@H](CCCCN)NC(=O)[C@H](Cc2c[nH]c3ccccc23)NC(=O)[C@H](Cc2ccccc2)NC(=O)[C@H](Cc2ccccc2)NC(=O)[C@H](CC(N)=O)NC(=O)[C@H](CCCCN)NC1=O` [somatostatin], the plasma triglyceride concentrations (normal humans) is given as “reduce plasma triglyceride concentrations”, the plasma triglyceride concentrations (acromegalics) is given as “reduce plasma triglyceride concentrations” and the plasma triglyceride concentrations (alloxan diabetic dogs) is given as “reduce plasma triglyceride concentrations”.

With `C[C@@H](O)[C@@H]1NC(=O)[C@H](CCCCN)NC(=O)[C@@H](Cc2c[nH]c3ccccc23)NC(=O)[C@H](Cc2ccccc2)NC(=O)[C@H](Cc2ccccc2)NC(=O)[C@@H](N)CSSC[C@@H](C(N)=O)NC(=O)[C@H](Cc2ccccc2)NC1=O` [BIM-23268, H-Cys-Phe-Phe-D-Trp-Lys-Thr-Phe-Cys-NH2] (H-CFF[dW]KTFC-NH2; disulfide 1-8 (inferred)) the “plasma glycerol through the 2-hour test period” value [1, 2] was “significantly lower”, the “plasma triglycerides through the 2-hour test period” value [1, 2] was “significantly lower” and the plasma glycerol [1, 3] was “significantly lowered”. For the same molecule, the plasma triglycerides [1, 3] was “significantly lowered” and the hypertriglyceridemia ([1]; 6-day treatment period at the prescribed dose) was “effective in reducing hypertriglyceridemia”.

For `C[C@@H](O)[C@@H]1NC(=O)[C@H](CCCCN)NC(=O)[C@@H](Cc2c[nH]c3ccccc23)NC(=O)[C@H](Cc2ccc(O)c(I)c2)NC(=O)[C@H](Cc2ccccc2)NC(=O)[C@@H](N)CSSC[C@@H](C(N)=O)NC(=O)[C@H](Cc2ccccc2)NC1=O` [BIM-23313, H-Cys-Phe-Tyr(I)-D-Trp-Lys-Thr-Phe-Cys-NH2], the Ki (hSSTR-3) was 25.5 nM, the Ki (hSSTR-5) was 0.3 nM and the Ki (hSSTR-2) was 4.78 nM. It also gave a Ki (hSSTR-4) of 55.3 nM.
